Experimental findings from ChEMBL document CHEMBL4715853 (J Med Chem, 2020) are described below.

Molecules are shown by their SMILES.

For the assay, the system named is Human coronavirus 229E. In words: Antiviral activity against HCoV-229E harboring GFP infected in human Huh-7 cells treated 1 hr prior to viral infection by fluorometric analysis. The class given is functional, organism-based.

Usually EC50 stands for the concentration that produces a half-maximal response. Read a high EC50 as a need for much substance. With `CCN(CC)CCCC(C)Nc1ccnc2cc(Cl)ccc12` (stereo unspecified) [CHLOROQUINE], a half-maximal response (EC50) required 3.3 µM.
